This is an account of results in paper PMC10969810, “Green Extraction Strategy Using Bio-Based Aqueous Biphasic Systems for Polyphenol Valorization from Grape By-Product” (Foods, 2024).

≈ marks a conversion by molar mass, not a printed value. Where “and” joins values, the source holds several entries; their conditions need not be identical. Identical values can stand only once. Like-named read-outs stand apart in the source and are kept apart here. Where only a bound is given, the exact number is not on record here.

Details of data set [1]: method as in doi:10.1016/j.afres.2023.100381. The settings on record: ABSs of [Ch]Cl and different surfactants, rice husk hydrolysate; cited from earlier work.
Data set [2] is described as follows: Solubility determination (UV spectroscopy of saturated solutions). Format: physicochemical. The settings on record: thermodynamic from solid. As for the experimental part:
Quantification was carried out using calibration curves (R^2 > 0.99 in all cases) for each analyzed compound within the concentration range of 2.5 to 50 mg L^-1.

Data set [3] in a line: Partition of polyphenols in cholinium salt/IL + PPG400 + water aqueous biphasic systems. Format: physicochemical. The conditions noted are these: for increase in RE by increasing the TLL: TLL 56.88 to 101.43, polyphenol content 2.5 g per L of ABS, pH~6, 25 °C. On the procedure: Considering previously established phase diagrams of ABSs, ternary mixtures within the biphasic region were prepared, containing 20 wt% salt/IL + 50 wt% PPG400 + 30 wt% of H2O +10 μL of polyphenol solution. The polyphenol solutions were prepared in 80 vol% ethanol, with concentrations of circa 2500 mg L^−1 for each compound. […] The selected compositions of ABSs and corresponding TLLs are given in the Supplementary Materials.
Each ABS was prepared in 1.5 mL microcentrifuge tubes by adding the appropriate amount of constituents to achieve a final weight of 1 g. All systems were vigorously agitated (Reax Top, Heidolph, Schwabach, Germany) and left for 2 h at 25 °C in a thermo-shaker incubator (ALEMADR-MSC, Colo Lab Experts, Novo Mesto, Slovenia). Following 5 min of centrifugation at 5000× g rpm (LLG-uniCFUGE 5, Meckenheim, Germany), the phases were carefully separated, and their weights and volumes were measured. After appropriate dilution and filtration using syringe filters (0.45 μm), the contents of polyphenols in the phases were quantified by high-performance liquid chromatography (HPLC), as described in Section 2.5.
The logarithmic distribution coefficients (logD) of the polyphenols were calculated as the ratio of the equilibrium concentration of each polyphenol in the PPG400-rich and IL/salt-rich phases, as follows:(1) logD=log [Polyphenol]PPG400-phase/[Polyphenol]IL/salt-phase.
The selectivities (S) with respect to gallic acid were calculated according to the following equation:(4) SGA/Polyphenol=DGA/DPolyphenol where the subscript “Polyphenol” stands for resveratrol or quercetin.
The quantification of polyphenols was carried out using HPLC (Knauer, Berlin, Germany), which includes a DAD detector and an Ascentis C18 (SUPELCO), Darmstadt, Germany, column with a particle size of 5 µm and dimensions 250 mm × 4.6 mm. Chromatographic separation of the target polyphenols occurred at a constant flow rate of 1 mL min^−1, the injection volume for all samples was 20 μL, and the temperature of the column was fixed at 45 °C, with 10% acetonitrile (v/v) as mobile phase A and pure acetonitrile as mobile phase B. For partition studies, isocratic conditions were used for the determination of each compound (A:B = 60:40). Quantification in a complex sample after extraction from the real sample was achieved using a gradient mode, varying the mobile phase from 100% A to 100% B for 30 min.

The conditions of data set [4]: cited from earlier work.
Details of data set [5]: method as in doi:10.2478/s11696-013-0417-6, doi:10.1016/0016-7037(88)90089-0. The settings on record: cited from earlier work.
Data set [6] in a line: Recovery of polyphenols from grape stem extract with [Ch][DHP]/PPG400 ABS. Format: physicochemical. The settings on record: 40 wt% PPG400 + 25 wt% [Ch][DHP], 25 °C, pH ~6, TLL ~101, ~5 mg extract per g ABS. As for the experimental part: Grapes collected from Quinta das Carvalhas, Pinhao (Regiao Demarcada do Douro, Portugal), were first separated into stems, seeds, and skins. All samples were freeze-dried, ground into powder, and stored in a desiccator. Two grams of the grape stem powder was mixed with 100 mL of a water:ethanol mixture (1:1, v:v), followed by stirring for 2 h and sonication for 5 min. The sample was centrifuged at 10,000× g rpm for 15 min, and the pellet was re-extracted. The supernatant was collected, and the solvent was evaporated under vacuum using a rotary evaporator at 40 °C. […]
The quantification of polyphenols was carried out using HPLC (Knauer, Berlin, Germany), which includes a DAD detector and an Ascentis C18 (SUPELCO), Darmstadt, Germany, column with a particle size of 5 µm and dimensions 250 mm × 4.6 mm. […] Quantification in a complex sample after extraction from the real sample was achieved using a gradient mode, varying the mobile phase from 100% A to 100% B for 30 min.
Guided by the results from the optimization studies, polyphenols were extracted from grape stem extract with specific conditions in mind based on previously determined extraction parameters. […] The RE for GA towards the [Ch][DHP] phase was 78.64%, and quercetin was not detected in the grape stem extract. […]

The mark [7] stands for this setting: [Ch][DHP]/PPG400 ABS, tie line ~101, lowest phase volume ratio (0.20), 25 °C.

Consider `O=C(O)/C=C/c1ccc(O)cc1` [p-coumaric acid], for which the “yield in the surfactant-rich phase” value in data set [1] was “over 90%”.

Take `Oc1ccc(/C=C/c2cc(O)cc(O)c2)cc1` [RSV, trans-resveratrol]: in data set [2] (PPG400/water 80:20 (v/v), aqueous with cosolvent or surfactant or cyclodextrin, PPG400/water 80:20, 25 °C, not the maximum solubility, read-out: solubility in PPG/water system matching the PPG phase), the solubility at 12 h was not below 100 mg/mL. Moreover, the “increase in RE by increasing the TLL” value in data set [3] ([Ch][DHP]/PPG400 ABS) is reported as “circa 7%”. Also, the “solubility in pure water” value in data set [4] was 0.039 mg/mL (≈ 0.171 mM).

For the compound `COc1cc(/C=C/C(=O)O)ccc1O` [ferulic acid], the “yield in the surfactant-rich phase” value in data set [1] was “over 90%”.

For the compound `O=C(O)c1cc(O)c(O)c(O)c1` [GA, gallic acid], the solubility at 12 h in data set [2] ([Ch][DHP]/water 50:50, aqueous with cosolvent or surfactant or cyclodextrin, around 50 wt% [Ch][DHP] in water, 25 °C, read-out: maximal solubility in the [Ch][DHP]-rich phase) turned out to be 140 mg/mL (≈ 822 mM). Also, the degradation in data set [5] (at 100 °C) was 30%. In addition, the “temperature from which degradation begins” value in data set [5] is 60 °C. Further, the “recovery efficiency from grape stem extract towards the [Ch][DHP] phase” value amounted to 78.64% in data set [6] and 78% in data set [6] (listed as gallic acid). Further, the “recovery efficiency (RE) toward the IL-rich phase” value is 92.31 ± 2.31% and 90% in data set [3] ([Ch][DHP]-based ABS, 20 wt% IL + 50 wt% PPG400, TLL 101.43, volume ratio 0.50, 25 °C); 88.7 ± 3.91% in data set [3] (setting [7]). The “increase in RE by increasing the TLL” value in data set [3] ([Ch][DHP]/PPG400 ABS) is approximately 2%. The solubility in water in data set [4] (no reference and method not given) was 14.38 mg/mL (≈ 84.5 mM).

Take `O=c1c(O)c(-c2ccc(O)c(O)c2)oc2cc(O)cc(O)c12` [QC, quercetin]: in data set [3] ([Ch][DHP]-based ABS, 25 °C), the “selectivity SGA/QC (DGA/DQC)” value was more than 1000. Besides, the “increase in RE by increasing the TLL” value in data set [3] ([Ch][DHP]/PPG400 ABS) is reported as approximately 9%. Moreover, the “recovery efficiency (RE) toward the PPG-rich phase” value in data set [3] (setting [7]) is 55.70 ± 2.13%.
